According to ChEMBL document CHEMBL5385889, “Design, synthesis and biological evaluations of quinolone amides against African trypanosomiasis with improved solubility” (Eur J Med Chem, 2023):
Values after ≈ are worked out from the molar mass of the structure shown.

What was measured:
[1] = Octanol/water partition coefficient, log P of the compound by LC-MS analysis; type: physicochemical
[2] = Thermodynamic aqueous solubility of compound in PBS buffer at pH 7.4 at 37 degreeC measured after 24 hrs by HPLC analysis; type: physicochemical; conditions: read-out: Therm_solubility
[3] = test system: Trypanosoma brucei; experiment: Antitrypanosomal activity against wild type Trypanosoma brucei M1.2 Lister 427 trypomastigotes form assessed as parasite growth inhibition incubated for 48 hrs; type: functional, organism-based; conditions: M1.2 Lister 427, 48 h
[4] = test system: J774.1; experiment: Cytotoxicity against mouse J774.1 cells assessed as reduction in cell viability incubated for 24 hrs by alamar blue staining based analysis; type: functional
[5] = Selectivity index, ratio of CC50 for cytotoxicity against mouse J774.1 cells assessed as reduction in cell viability to IC50 for antitrypanosomal activity against wild type Trypanosoma brucei M1.2 Lister 427 trypomastigotes form assessed as parasite growth inhibition; type: toxicity, cell-based; conditions: read-out: Ratio CC50/IC50

| SMILES | logP ([1]; read-out: logP) | solubility thermodynamic at 24 h [2] [µg/mL] | IC50 [3] [µM] | CC50 [4] [µM] | selectivity ratio [5] | logP [1] |
| --- | --- | --- | --- | --- | --- | --- |
| O=C(NCc1ccccc1)c1cn(CC2CCCCC2)c2cc(N3CCOCC3)ccc2c1=O | 4.59 | < 0.1 | 0.86 | > 50 | > 58 | – |
| CCCCn1cc(C(=O)NCc2ccccc2)c(=O)c2ccc(NCCOCCOCCOC)cc21 | 3.38 | 41 (≈ 82.7 µM) | 1.15 | > 50 | > 43 | – |
| CCCCn1cc(C(=O)NCc2ccccc2)c(=O)c2ccc(N3CCOCC3)cc21 | – | – | 0.23 | > 100 | > 435 | – |
| O=C(NCc1ccccc1)c1cn(C23CC(C2)C3)c2cc(N3CCOCC3)ccc2c1=O | 4.57 | 4.06 (≈ 9.45 µM) | 0.13 | 48.4 | 373 | – |
| O=C(NCc1ccccc1)c1cn(CC2CCC2)c2cc(N3CCOCC3)ccc2c1=O | 3.68 | 1.66 (≈ 3.85 µM) | 0.8 | 29.9 | 37 | – |
| CCCCn1cc(C(=O)NC2(c3ccccc3)CCCCC2)c(=O)c2c(F)cc(N3CCOCC3)cc21 | 4.97 | < 0.1 | 4.22 | > 50 | > 12 | – |
| CCCCn1cc(C(=O)NCc2ccccc2)c(=O)c2ccc(OCCOCCOCCOC)cc21 | 3.57 | 93 (≈ 187 µM) | 1.12 | > 50 | > 45 | – |
| CCCCn1cc(C(=O)NC2(c3ccccc3)CCCCC2)c(=O)c2ccc(N3CCOCC3)cc21 | 4.94 | < 0.1 | 4.18 | 37 | 9 | – |
| CCCCn1cc(C(=O)NC2(c3ccccc3)CC2)c(=O)c2cc(F)c(N3CCOCC3)c(F)c21 | 4.57 | 0.23 (≈ 0.478 µM) | 0.06 | > 20 | > 333 | – |
| CCCCn1cc(C(=O)NCc2ccccc2)c(=O)c2ccc(N3CCCN(C)CC3)cc21 | 4.51 | 20.9 (≈ 46.8 µM) | 2.97 | 14.2 | 5 | – |
| CCCCn1cc(C(=O)NCc2ccccc2)c(=O)c2ccc(N3CCC(OCCOCCOCCOC)CC3)cc21 | 4.05 | 86.9 (≈ 150 µM) | 1.01 | 48.5 | 48 | – |
| CCCCn1cc(C(=O)NCc2ccc(CN)cc2)c(=O)c2cc(F)c(N3CCOCC3)cc21 | 3.8 | > 1000 | 0.3 | 49.2 | 164 | – |
| CCCCn1cc(C(=O)NC2(c3ccccc3)CCCC2)c(=O)c2ccc(N3CCOCC3)cc21 | 4.57 | < 0.1 | 4.4 | 34.1 | 8 | – |
| CCCCn1cc(C(=O)NCc2cccc(CN)c2)c(=O)c2cc(F)c(N3CCOCC3)cc21 | 3.83 | > 1000 | 0.52 | 41.8 | 80 | – |
| CCCCn1cc(C(=O)NCc2ccccc2)c(=O)c2cc(F)c(N3CCOCC3)c(Cl)c21 | 5.01 | < 0.1 | 0.18 | > 50 | > 278 | – |
| CCCCn1cc(C(=O)NCc2ccccc2)c(=O)c2cc(F)c(N3CCOCC3)cc21 | – | – | 0.047 | 57 | 1210 | 4.1 |
| CCCCn1cc(C(=O)NCc2ccc(CN)cc2)c(=O)c2c(F)cc(N3CCOCC3)cc21 | 2.72 | > 1000 | 0.25 | > 50 | > 200 | – |

| SMILES | logP ([1]; read-out: logP) | solubility thermodynamic at 24 h [2] [µg/mL] | IC50 [3] [µM] | CC50 [4] [µM] | selectivity ratio [5] | logP [1] |
| --- | --- | --- | --- | --- | --- | --- |
| CCCCn1cc(C(=O)NC2(c3ccccc3)CC2)c(=O)c2ccc(N3CCOCC3)cc21 | 3.76 | < 0.1 | 0.72 | > 50 | > 69 | – |
| CCCCn1cc(C(=O)NCc2ccccc2)c(=O)c2c(F)cc(N3CCOCC3)cc21 | 3.38 | – | 0.05 | > 100 | > 2000 | – |
| CCCCn1cc(C(=O)NCc2ccc(C#N)cc2)c(=O)c2c(F)cc(N3CCOCC3)cc21 | 2.9 | 0.88 (≈ 1.9 µM) | 0.1 | > 50 | > 500 | – |
| CCCCn1cc(C(=O)NC23CC(C2)C3)c(=O)c2ccc(N3CCOCC3)cc21 | 3.74 | 3.02 (≈ 7.64 µM) | 3.72 | > 50 | > 13 | – |
| CCCCN1CC(C)(C(=O)NCc2ccccc2)C(=O)c2ccc(N3CCOCC3)cc21 (centres undefined) | 3.04 | 10.4 (≈ 23.9 µM) | 3.74 | > 50 | > 13 | – |
| CCCCn1cc(C(=O)NC2(c3ccccc3)CCOCC2)c(=O)c2ccc(N3CCOCC3)cc21 | 3.6 | 1.03 (≈ 2.1 µM) | > 20 | > 50 | – | – |
| O=C(NCc1ccccc1)c1cn(CC2CC2)c2cc(N3CCOCC3)ccc2c1=O | 3.24 | 5.81 (≈ 13.9 µM) | 0.55 | > 50 | > 91 | – |
| CCCCn1cc(C(=O)NC2(c3ccccc3)CCCC2)c(=O)c2cc(F)c(N3CCOCC3)cc21 | 5.24 | < 0.1 | 1.83 | 47.4 | 26 | – |
| CCCCn1cc(C(=O)NC2(c3ccccc3)CC2)c(=O)c2c(F)cc(N3CCOCC3)cc21 | 3.54 | < 0.1 | 0.18 | > 50 | > 278 | – |
| CCCCn1cc(C(=O)NCc2ccccc2)c(=O)c2cc(OCC)c(N3CCOCC3)c(OCC)c21 | 5.51 | < 0.1 | 1.93 | 33.2 | 17 | – |
| CCCCn1cc(C(=O)NCc2ccc(CN)cc2)c(=O)c2ccc(N3CCOCC3)cc21 | 3.24 | > 1000 | 1.55 | > 50 | > 32 | – |
| CCCCn1cc(C(=O)NCc2cccc(CN)c2)c(=O)c2ccc(N3CCOCC3)cc21 | 3.31 | > 1000 | 1.08 | > 50 | > 46 | – |
| CCCCn1cc(C(=O)NCc2cccc(C#N)c2)c(=O)c2c(F)cc(N3CCOCC3)cc21 | 2.98 | 0.24 (≈ 0.519 µM) | 0.022 | > 50 | > 2270 | – |
| CCCCn1cc(C(=O)NCc2ccccc2)c(=O)c2cc(F)c(N3CCOCC3)c(Br)c21 | 5.05 | < 0.1 | 0.47 | > 50 | > 106 | – |
| CCCCn1cc(C(=O)NC2(c3ccccc3)CCCCC2)c(=O)c2cc(F)c(N3CCOCC3)cc21 | 5.64 | < 0.1 | 4.72 | 31 | 7 | – |
| CCCCn1cc(C(=O)NC2(c3ccccc3)CC2)c(=O)c2cc(F)c(N3CCOCC3)cc21 | 4.46 | < 0.1 | 0.15 | > 50 | > 333 | – |
| CCCCn1cc(C(=O)NC2(c3ccccc3)CCS(=O)(=O)CC2)c(=O)c2ccc(N3CCOCC3)cc21 | 2.83 | 3.35 (≈ 6.23 µM) | > 20 | > 50 | – | – |
